In patent US9611251B2, “Substituted piperidine compounds and their use as orexin receptor modulators” (Janssen Pharmaceutica NV, priority 2013, dated 2017) one finds Ki data, which are given here for 23 molecules.

Where only a bound is given, the exact number is not on record here.

One assay addresses rat orexin 1 receptor (Rattus norvegicus, UniProt P56718). Kind of assay: Rat orexin 1 receptor radioligand binding. To be noted: rat orexin 1 receptor radioligand binding; averages of 2-20 runs; read-out: rOX1 Ki. Put shortly:
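Cell-suspension competition binding used 4 nM final tritiated thiazolyl-pyrrolidinyl-methanone radioligand in PBS, ≤0.1% DMSO, with 10 µM almorexant defining nonspecific binding. Filter-bound radioactivity was counted in triplicate. IC50 came from one-site competition fits and was converted to Ki using the predetermined Kd.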

Another assay concerns the target human orexin 1 receptor (Homo sapiens, UniProt O43613). Kind of assay: Human orexin 1 receptor radioligand binding. To be noted: human orexin 1 receptor radioligand binding; averages of 2-20 runs; read-out: hOX1 Ki.
A further assay has as its target human orexin 2 receptor (Homo sapiens (Human), UniProt O43614). The assay is described as follows: Human orexin 2 receptor radioligand binding ([3H]-EMPA). To be noted: averages of 2-20 runs, read-out: hOX2 Ki. The method, boiled down: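 Competition binding using homogenized HEK293 cells stably expressing human orexin 2 receptor, [3H]-EMPA at 2 nM final and ≤0.1% DMSO; nonspecific binding set with 10 μM almorexant. Filter-bound radioactivity counted by scintillation; one-site competition IC50 converted to Ki using pre-determined Kd, compounds run in triplicate.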

Sequence of human orexin 2 receptor (O43614 whole entry): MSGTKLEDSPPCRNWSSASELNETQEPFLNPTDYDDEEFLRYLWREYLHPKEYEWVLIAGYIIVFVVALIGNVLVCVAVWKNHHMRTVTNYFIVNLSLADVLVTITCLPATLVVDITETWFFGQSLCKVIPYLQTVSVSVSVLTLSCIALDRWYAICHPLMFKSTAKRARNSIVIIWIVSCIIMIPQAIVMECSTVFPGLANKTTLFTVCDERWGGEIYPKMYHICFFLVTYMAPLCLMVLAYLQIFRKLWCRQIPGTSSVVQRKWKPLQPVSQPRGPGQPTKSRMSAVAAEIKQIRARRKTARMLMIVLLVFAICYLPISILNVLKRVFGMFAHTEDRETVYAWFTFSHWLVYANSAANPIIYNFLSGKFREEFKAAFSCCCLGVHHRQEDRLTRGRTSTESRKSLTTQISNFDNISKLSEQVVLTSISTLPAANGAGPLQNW

With `C[C@H]1[C@H](Oc2ncc(C(F)(F)F)cc2F)CCCN1C(=O)c1cccc(F)c1-n1nccn1` [Example 159, (3-fluoro-2-(2H-1,2,3-triazol-2-yl)phenyl)((2S,3R)-3-((3-fluoro-5-(trifluoromethyl)pyridin-2-yl)oxy)-2-methylpiperidin-1-yl)methanone], the Ki at rat orexin 1 receptor amounted to 0.06 µM; at human orexin 1 receptor it was 0.014 µM; on human orexin 2 receptor, 1.55 µM.
In the same order, the values of `C[C@H]1[C@H](Oc2ccc(C(F)(F)F)cn2)CCCN1C(=O)c1cccc(F)c1-c1ncccn1` [Example 116, (3-fluoro-2-(pyrimidin-2-yl)phenyl)((2S,3R)-2-methyl-3-((5-(trifluoromethyl)pyridin-2-yl)oxy)piperidin-1-yl)methanone] are 0.015 µM, 0.018 µM and 0.598 µM.
On to `C[C@H]1[C@H](Oc2ccc(C(F)(F)F)cn2)CCCN1C(=O)c1ccccc1-c1ncccn1` [Example 143, ((2S,3R)-2-methyl-3-((5-(trifluoromethyl)pyridin-2-yl)oxy)piperidin-1-yl)(2-(pyrimidin-2-yl)phenyl)methanone], for which the Ki on rat orexin 1 receptor turned out to be 0.025 µM; at human orexin 1 receptor, 0.015 µM; at human orexin 2 receptor it was 0.473 µM.
In the same order, the values of `C[C@H]1[C@H](Oc2ncc(C(F)(F)F)cc2F)CCCN1C(=O)c1ccccc1-n1nccn1` [Example 224, (2-(2H-1,2,3-triazol-2-yl)phenyl)((2S,3R)-3-((3-fluoro-5-(trifluoromethyl)pyridin-2-yl)oxy)-2-methylpiperidin-1-yl)methanone] are 0.033 µM, 0.047 µM and 0.576 µM.
With `C[C@H]1[C@H](Oc2cnc(C(F)(F)F)cn2)CCCN1C(=O)c1ccccc1-c1ncccn1` [Example 168, ((2S,3R)-2-methyl-3-((5-(trifluoromethyl)pyrazin-2-yl)oxy)piperidin-1-yl)(2-(pyrimidin-2-yl)phenyl)methanone], the Ki on rat orexin 1 receptor came to 0.029 µM; at human orexin 1 receptor it was 0.025 µM; at human orexin 2 receptor, 0.951 µM.
In the same order, the values of `Cc1ccc(C(=O)N2CCC[C@@H](Oc3ccc(C(F)(F)F)cn3)[C@@H]2C)c(-n2nccn2)c1` [Example 112, (4-methyl-2-(2H-1,2,3-triazol-2-yl)phenyl)((2S,3R)-2-methyl-3-((5-(trifluoromethyl)pyridin-2-yl)oxy)piperidin-1-yl)methanone] are 0.007 µM, 0.011 µM and 0.664 µM.
In the same order, the values of `Cc1ccc(-n2nccn2)c(C(=O)N2CCC[C@@H](Oc3ncc(C(F)(F)F)cc3F)[C@@H]2C)n1` [Example 160, ((2S,3R)-3-((3-fluoro-5-(trifluoromethyl)pyridin-2-yl)oxy)-2-methylpiperidin-1-yl)(6-methyl-3-(2H-1,2,3-triazol-2-yl)pyridin-2-yl)methanone] are 0.023 µM, 0.022 µM and 0.62 µM.
In the same order, the values of `C[C@H]1[C@H](Oc2ncc(C(F)(F)F)cc2F)CCCN1C(=O)c1cccc(F)c1-c1ncccn1` [Example 155, (3-fluoro-2-(pyrimidin-2-yl)phenyl)((2S,3R)-3-((3-fluoro-5-(trifluoromethyl)pyridin-2-yl)oxy)-2-methylpiperidin-1-yl)methanone] are 0.028 µM, 0.016 µM and 1.1 µM.
`C[C@H]1[C@H](Nc2cnc(C(F)(F)F)cn2)CCCN1C(=O)c1ccc(F)cc1-c1ncco1` (relative stereo) [Example 208, (4-fluoro-2-(oxazol-2-yl)phenyl)((2S*,3R*)-2-methyl-3-((5-(trifluoromethyl)pyrazin-2-yl)amino)piperidin-1-yl)methanone]: the inhibition constant (Ki) on rat orexin 1 receptor was 0.067 µM; at human orexin 1 receptor, 0.034 µM; at human orexin 2 receptor it was 1.1 µM.
Turning to `Cc1ccc(C(=O)N2CCC[C@@H](Oc3cnc(C(F)(F)F)cn3)[C@@H]2C)c(-n2nccn2)c1` [Example 113, (4-methyl-2-(2H-1,2,3-triazol-2-yl)phenyl)((2S,3R)-2-methyl-3-((5-(trifluoromethyl)pyrazin-2-yl)oxy)piperidin-1-yl)methanone], the results for the Ki on rat orexin 1 receptor, at human orexin 1 receptor and at human orexin 2 receptor were 0.025 µM, 0.043 µM and 3.9 µM, respectively.
As to `C[C@H]1[C@H](Oc2ccc(C(F)(F)F)cn2)CCCN1C(=O)c1ccccc1-c1ncc(F)cn1` [Example 141, (2-(5-fluoropyrimidin-2-yl)phenyl)((2S,3R)-2-methyl-3-((5-(trifluoromethyl)pyridin-2-yl)oxy)piperidin-1-yl)methanone], the figures for the Ki at rat orexin 1 receptor, on human orexin 1 receptor and on human orexin 2 receptor were 0.031 µM, 0.022 µM and 0.676 µM, respectively.
In the same order, the values of `Cc1cnc(C(=O)N2CCC[C@@H](Oc3ccc(Cl)cn3)[C@@H]2C)c(-c2ncccn2)c1` [Example 216, ((2S,3R)-3-((5-chloropyridin-2-yl)oxy)-2-methylpiperidin-1-yl)(5-methyl-3-(pyrimidin-2-yl)pyridin-2-yl)methanone] are 0.052 µM, 0.089 µM and 8.2 µM.
In the same order, the values of `C[C@H]1[C@H](Oc2ncc(C(F)(F)F)cn2)CCCN1C(=O)c1ccccc1-c1ncc(F)cn1` [Example 165, (2-(5-fluoropyrimidin-2-yl)phenyl)((2S,3R)-2-methyl-3-((5-(trifluoromethyl)pyrimidin-2-yl)oxy)piperidin-1-yl)methanone] are 0.059 µM, 0.077 µM and 4.4 µM.
In the same order, the values of `Cc1cccc(C(=O)N2CCC[C@@H](Oc3ncc(C(F)(F)F)cc3F)[C@@H]2C)c1-c1ncccn1` [Example 220, ((2S,3R)-3-((3-fluoro-5-(trifluoromethyl)pyridin-2-yl)oxy)-2-methylpiperidin-1-yl)(3-methyl-2-(pyrimidin-2-yl)phenyl)methanone] are 0.023 µM, 0.025 µM and 0.393 µM.
`Cc1ccc(-c2ncccn2)c(C(=O)N2CCC[C@@H](Oc3ccc(C(F)(F)F)cn3)[C@@H]2C)n1` [Example 213, ((2S,3R)-2-methyl-3-((5-(trifluoromethyl)pyridin-2-yl)oxy)piperidin-1-yl)(6-methyl-3-(pyrimidin-2-yl)pyridin-2-yl)methanone]: the Ki was 0.023 µM at rat orexin 1 receptor, 0.068 µM at human orexin 1 receptor and 0.217 µM on human orexin 2 receptor.
In the same order, the values of `Cc1cnc(-n2nccn2)c(C(=O)N2CCC[C@@H](Oc3ccc(Cl)cn3)[C@@H]2C)c1` [Example 214, ((2S,3R)-3-((5-chloropyridin-2-yl)oxy)-2-methylpiperidin-1-yl)(5-methyl-2-(2H-1,2,3-triazol-2-yl)pyridin-3-yl)methanone] are 0.038 µM, 0.078 µM and 5.4 µM.
Consider `C[C@H]1[C@H](Oc2ncc(C(F)(F)F)cn2)CCCN1C(=O)c1ccccc1-c1ncccn1` [Example 169, ((2S,3R)-2-methyl-3-((5-(trifluoromethyl)pyrimidin-2-yl)oxy)piperidin-1-yl)(2-(pyrimidin-2-yl)phenyl)methanone], for which the Ki came out at 0.032 µM at rat orexin 1 receptor, 0.023 µM at human orexin 1 receptor and 1.2 µM on human orexin 2 receptor.
`Cc1ccc(C(=O)N2CCC[C@@H](N(C)c3ccc(C(F)(F)F)cn3)[C@@H]2C)c(-n2nccn2)n1` (relative stereo) [Example 188, (6-methyl-2-(2H-1,2,3-triazol-2-yl)pyridin-3-yl)((2S*,3R*)-2-methyl-3-(methyl(5-(trifluoromethyl)pyridin-2-yl)amino)piperidin-1-yl)methanone]: the Ki at rat orexin 1 receptor was 0.092 µM; on human orexin 1 receptor it was 0.1 µM; at human orexin 2 receptor it was over 10 µM.
`C[C@H]1[C@H](Nc2nc3ccccc3o2)CCCN1C(=O)c1ccc(F)cc1-c1ncccn1` (relative stereo) [Example 206, ((2S*,3R*)-3-(benzo[d]oxazol-2-ylamino)-2-methylpiperidin-1-yl)(4-fluoro-2-(pyrimidin-2-yl)phenyl)methanone]: the Ki at rat orexin 1 receptor worked out at 0.016 µM; at human orexin 1 receptor, 0.016 µM; on human orexin 2 receptor, 0.564 µM.
`C[C@H]1[C@H](Nc2nc3ccccc3o2)CCCN1C(=O)c1cccc(F)c1-c1ncccn1` (relative stereo) [Example 204, ((2S*,3R*)-3-(benzo[d]oxazol-2-ylamino)-2-methylpiperidin-1-yl)(3-fluoro-2-(pyrimidin-2-yl)phenyl)methanone]: the Ki on rat orexin 1 receptor was 0.014 µM; at human orexin 1 receptor it was 0.016 µM; at human orexin 2 receptor it was 0.292 µM.
In the same order, the values of `Cc1ccc(C(=O)N2CCC[C@@H](Oc3ccc(C(F)(F)F)cn3)[C@@H]2C)c(-n2nccn2)n1` [Example 150, (6-methyl-2-(2H-1,2,3-triazol-2-yl)pyridin-3-yl)((2S,3R)-2-methyl-3-((5-(trifluoromethyl)pyridin-2-yl)oxy)piperidin-1-yl)methanone] are 0.032 µM, 0.039 µM and over 10 µM.
In the same order, the values of `Cc1cccc(C(=O)N2CCC[C@@H](Oc3ccc(C(F)(F)F)cn3)[C@@H]2C)c1-c1ncccn1` [Example 151, (3-methyl-2-(pyrimidin-2-yl)phenyl)((2S,3R)-2-methyl-3-((5-(trifluoromethyl)pyridin-2-yl)oxy)piperidin-1-yl)methanone] are 0.035 µM, 0.031 µM and 0.537 µM.
In the same order, the values of `C[C@H]1[C@H](Oc2ncc(C(F)(F)F)cn2)CCCN1C(=O)c1cc(F)ccc1-c1ncco1` [Example 175, (5-fluoro-2-(oxazol-2-yl)phenyl)((2S,3R)-2-methyl-3-((5-(trifluoromethyl)pyrimidin-2-yl)oxy)piperidin-1-yl)methanone] are 0.124 µM, 0.188 µM and 4.4 µM.
